We go through twelve compounds from ChEMBL document CHEMBL1201862, “PubChem BioAssay data set” (2004).

Each structure is given as a SMILES string.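 A five-concentration, 48-hour dose response in 96-well plates underlies each endpoint, interpolated linearly between surrounding concentrations. GI50 is the concentration that inhibits growth by half.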 The source made the active and inactive calls. Cut-off read from the data, not from the text of the source: active = GI50 up to about 1.1 µM and inactive = higher.

Assay in all cases: NCI-60 cell line screen, 48 h
The test system of test [1] is HOP-92.
The subject of test [2] is OVCAR-3.
Test [3] relates to OVCAR-5.
For test [4], the system named is SW-620.
The subject of test [5] is SR.
Test [6] relates to KM12.
Test [7] has as its system CCRF-CEM.
Test [8] has as its system A549.
For test [9], the system named is SN12C.
Test [10] relates to EKVX.
The test system of test [11] is OVCAR-4.
The subject of test [12] is SK-MEL-28.
Test [13] concerns OVCAR-8.
In test [14] the test system is MOLT-4.
Test [15] deals with UACC-62.
Test [16] concerns ACHN.
For test [17], the system named is LOX IMVI.
Test [18] concerns PC-3.
Test [19] has as its system T47D.

As for `Cc1ccccc1-n1c(CCl)nc2ccc(Br)cc2c1=O`, the GI50 is 12.8 µM (inactive) in [1]; 14.2 µM (inactive) in test [2]; 24.4 µM (inactive) in [3]; 3.13 µM (inactive) in [4]; 3.73 µM (inactive) in test [5]; 13.6 µM (inactive) in test [6]. In addition, the GI50 was 0.278 µM (active) in test [7]; 18.2 µM (inactive) in test [8]; 0.434 µM (active) in [9]; 18.1 µM (inactive) in test [10]; 14.8 µM (inactive) in [11]; 17.5 µM (inactive) in [12]. For the same compound, the GI50 in [13] is 12.5 µM (inactive); in test [14], 19.8 µM (inactive); in test [15] it was 4.4 µM (inactive); in [16], 30.1 µM (inactive); in [17], 0.0333 µM (active).
For the compound `COc1cccc(/C=C2\CCCc3ccccc3C2=O)c1`, the GI50 in test [1] was 13.4 µM (inactive); in test [2] it was 17.1 µM (inactive); in test [3] it was 15.3 µM (inactive); in test [4] it was 17.3 µM (inactive); in [5], 13 µM (inactive); in [6], 17.6 µM (inactive). Moreover, the GI50 in [7] is 12.3 µM (inactive); in test [8], 23 µM (inactive); in [9], 16.1 µM (inactive); in [10], 21.3 µM (inactive); in [11], 13.5 µM (inactive); in test [12], 18.1 µM (inactive). Further, the GI50 is 19.2 µM (inactive) in test [13]; 19.4 µM (inactive) in test [14]; 16.2 µM (inactive) in [18]; 12.9 µM (inactive) in [15]; 26.4 µM (inactive) in test [16]; 17.4 µM (inactive) in test [17].
As to `N#Cc1nc(Nc2ccc([N+](=O)[O-])cc2)sc1N`, the GI50 in [1] was 27.3 µM (inactive); in [2], 16.9 µM (inactive); in [3], 28.6 µM (inactive); in test [4], 20.5 µM (inactive); in [5], 0.675 µM (active); in test [6] it was 21.9 µM (inactive). The GI50 was 3.4 µM (inactive) in test [7]; 23.9 µM (inactive) in test [8]; 7.8 µM (inactive) in test [9]; 32.2 µM (inactive) in test [10]; 33.8 µM (inactive) in test [11]; 22.9 µM (inactive) in test [12]. Moreover, the GI50 in [13] was 19.4 µM (inactive); in test [14], 2.48 µM (inactive); in [15] it was 15.8 µM (inactive); in [16] it was 9.62 µM (inactive); in test [17], 7.19 µM (inactive).
As for `O=C(NCCCCCCCCCCCCNC(=O)c1cccc2ccccc12)c1cccc2ccccc12`, the GI50 in test [1] is > 52.2 µM (inactive); in test [2], > 45.9 µM (inactive); in [3] it was > 100 µM (inactive); in test [4], > 67.5 µM (inactive); in test [5], 47 µM (inactive); in [6] it was 97.3 µM (inactive). Further, the GI50 in test [7] is > 56.2 µM (inactive); in test [8] it was > 68.5 µM (inactive); in test [9] it was > 68.4 µM (inactive); in test [10] it was > 62.8 µM (inactive); in test [11], 6.24 µM (inactive); in test [12] it was > 100 µM (inactive). For the same compound, the GI50 in test [13] was 31.5 µM (inactive); in [14], > 100 µM (inactive); in [15] it was > 100 µM (inactive); in [16] it was > 64 µM (inactive); in test [17], > 84.9 µM (inactive).
With `Cc1cccc(NS(=O)(=O)c2ccc(/N=N/c3c(O)c(C(=O)O)cc4ccccc34)cc2)n1`, the GI50 in [1], in test [2], in test [3], in test [4], in test [5] and in test [6] was > 100 µM (inactive) each time. In addition, the GI50 in [7], in [8], in test [10], in test [11], in [12] and in [13] was > 100 µM (inactive) in each case. For the same compound, the GI50 in test [14], in [18], in [15] and in test [16] was > 100 µM (inactive) in each case.
On to `CC1=C(C(=O)NCc2ccccc2)C(/C=C/c2ccccc2)C(C(=O)NCc2ccccc2)=C(C)N1`, for which the GI50 in [1], in test [2], in test [3], in test [4], in test [5] and in test [6] was > 100 µM (inactive) in each case. Further, the GI50 in [7], in [8], in [9], in [10], in [11] and in test [12] was > 100 µM (inactive) each time. Moreover, the GI50 in test [13], in [14], in [15], in test [16] and in test [17] was > 100 µM (inactive) each time.
As for `N#Cc1cccc2c1Nc1ccccc1S2`, the GI50 was 20.2 µM (inactive) in test [1]; > 100 µM (inactive) in test [2]; > 100 µM (inactive) in test [3]; > 100 µM (inactive) in [4]; > 100 µM (inactive) in test [5]; > 100 µM (inactive) in [6]. Further, the GI50 in test [7], in test [8], in test [9], in [10], in [11] and in [12] was > 100 µM (inactive) in each case. The GI50 in test [13] is 79.3 µM (inactive); in test [14], > 100 µM (inactive); in test [15], 60.7 µM (inactive); in test [16] it was > 100 µM (inactive); in [17] it was > 100 µM (inactive).
Regarding `O=C(CSCC(=O)N/N=C/c1ccc2c(c1)OCO2)N/N=C/c1ccc2c(c1)OCO2`, the GI50 in test [1] is > 100 µM (inactive); in test [2] it was > 100 µM (inactive); in test [3] it was > 100 µM (inactive); in test [4], > 100 µM (inactive); in test [6], > 100 µM (inactive); in test [7] it was 82.2 µM (inactive). Also, the GI50 in test [8] was 91.4 µM (inactive); in test [9], > 100 µM (inactive); in test [10], 55.8 µM (inactive); in [11], > 100 µM (inactive); in test [12], > 100 µM (inactive); in test [13], 49 µM (inactive). For the same compound, the GI50 in test [19] is 55.5 µM (inactive); in test [14], 21.5 µM (inactive); in test [18] it was 40.6 µM (inactive); in test [15], 52.6 µM (inactive); in test [16], > 100 µM (inactive); in [17], > 100 µM (inactive).
As to `Cc1cccc(C)c1NC(=O)C(=O)Nn1c(NN)nc2ccccc2c1=O`, the GI50 in test [1], in test [2], in [3], in test [4], in test [5] and in test [6] was > 100 µM (inactive) in each case. For the same compound, the GI50 in test [7], in test [8], in test [9], in test [10], in [11] and in test [12] was > 100 µM (inactive) throughout. Moreover, the GI50 in [13], in [14], in test [15], in test [16] and in test [17] was > 100 µM (inactive) throughout.
With `CCCCOC(=O)NC(=O)c1cn(CCCOC(=O)CCCCCCCCC(=O)OCCCn2cc(C(=O)NC(=O)OCCCC)c(=O)[nH]c2=O)c(=O)[nH]c1=O`, the GI50 in [1], in test [2], in [3], in test [4], in test [5] and in [6] was > 100 µM (inactive) each time. Moreover, the GI50 in test [7], in test [8], in test [9], in [10], in [11] and in test [12] was > 100 µM (inactive) each time. Also, the GI50 in test [13], in [14], in test [15], in [16] and in test [17] was > 100 µM (inactive) each time.
Consider `Cc1ccc(S(=O)(=O)NC(=O)C#CCOC2CCCCO2)cc1` (centres undefined), for which the GI50 in test [1], in test [2], in [3], in [4], in test [5] and in test [7] was > 100 µM (inactive) throughout. Also, the GI50 in [8], in [9], in [10], in test [11], in test [12] and in test [13] was > 100 µM (inactive) throughout. Besides, the GI50 in test [14], in test [15], in test [16] and in [17] was > 100 µM (inactive) each time.
For the compound `COc1c(I)c(OC)c2c(c1I)O[C@@H]1OCC[C@H]21`, the GI50 is 22.7 µM (inactive) in test [1]; 27.7 µM (inactive) in [2]; 41.1 µM (inactive) in test [3]; 35 µM (inactive) in test [4]; 15.7 µM (inactive) in [5]; 29.7 µM (inactive) in test [6]. Moreover, the GI50 is 27.5 µM (inactive) in test [7]; 34 µM (inactive) in test [8]; 31.3 µM (inactive) in test [9]; 74.8 µM (inactive) in test [10]; 23.6 µM (inactive) in test [11]; 34.2 µM (inactive) in [12]. Moreover, the GI50 in test [13] is 33 µM (inactive); in test [14], 20 µM (inactive); in test [15] it was 32.5 µM (inactive); in test [16] it was 17.3 µM (inactive); in test [17], 32.4 µM (inactive).
